Measurements from ChEMBL document CHEMBL4177569, “Design, synthesis and preliminary antiproliferative activity studies of new diheteroaryl thioether derivatives” (Bioorg Med Chem Lett, 2017).

Experiments:
Assay type in all cases: functional, cell-based
[1] = test system: NCI-H1650; test: Antiproliferative activity against human NCI-H1650 cells after 48 hrs by MTT assay; conditions: NCI-H1650, 48 h
[2] = test system: MGC-803; test: Antiproliferative activity against human MGC803 cells after 48 hrs by MTT assay; conditions: MGC-803, 48 h
[3] = test system: ECa-109 cell line; test: Antiproliferative activity against human EC109 cells after 48 hrs by MTT assay; conditions: ECa-109, 48 h
[4] = test system: MKN-45; test: Antiproliferative activity against human MKN45 cells after 48 hrs by MTT assay; conditions: MKN-45, 48 h

With `O=c1[nH]cc(F)c(=O)[nH]1` [FLUOROURACIL] the IC50 [1] was 14.2 µM, the IC50 [2] was 7.52 µM and the IC50 [3] was 6.21 µM. For the same compound, the IC50 [4] was 8.89 µM.
